Three molecules from article PMC9162272 (Journal of Cardiovascular Pharmacology, 2022) can be followed below.

Molecules are shown by their SMILES. Like-named read-outs stand apart in the source and are kept apart here.

The experiment has as its target PDE-III (Homo sapiens, UniProt Q14432). Kind of experiment: Phosphodiesterase inhibition, purified PDE-III isozyme. The class given is biochemical. Conditions: for PDE-IV Versus PDE-III, IC50 Ratio: selectivity of inhibition of PDE-III over PDE-IV.
Where [1] appears, read: read-out: PDE-III IC50, PDE-III isolated from human platelets, 30°C, 30 minutes, [3H]-cAMP 0.1 µM and cAMP 0.1 µM, duplicates.

Sequence of PDE-III (Q14432 whole entry): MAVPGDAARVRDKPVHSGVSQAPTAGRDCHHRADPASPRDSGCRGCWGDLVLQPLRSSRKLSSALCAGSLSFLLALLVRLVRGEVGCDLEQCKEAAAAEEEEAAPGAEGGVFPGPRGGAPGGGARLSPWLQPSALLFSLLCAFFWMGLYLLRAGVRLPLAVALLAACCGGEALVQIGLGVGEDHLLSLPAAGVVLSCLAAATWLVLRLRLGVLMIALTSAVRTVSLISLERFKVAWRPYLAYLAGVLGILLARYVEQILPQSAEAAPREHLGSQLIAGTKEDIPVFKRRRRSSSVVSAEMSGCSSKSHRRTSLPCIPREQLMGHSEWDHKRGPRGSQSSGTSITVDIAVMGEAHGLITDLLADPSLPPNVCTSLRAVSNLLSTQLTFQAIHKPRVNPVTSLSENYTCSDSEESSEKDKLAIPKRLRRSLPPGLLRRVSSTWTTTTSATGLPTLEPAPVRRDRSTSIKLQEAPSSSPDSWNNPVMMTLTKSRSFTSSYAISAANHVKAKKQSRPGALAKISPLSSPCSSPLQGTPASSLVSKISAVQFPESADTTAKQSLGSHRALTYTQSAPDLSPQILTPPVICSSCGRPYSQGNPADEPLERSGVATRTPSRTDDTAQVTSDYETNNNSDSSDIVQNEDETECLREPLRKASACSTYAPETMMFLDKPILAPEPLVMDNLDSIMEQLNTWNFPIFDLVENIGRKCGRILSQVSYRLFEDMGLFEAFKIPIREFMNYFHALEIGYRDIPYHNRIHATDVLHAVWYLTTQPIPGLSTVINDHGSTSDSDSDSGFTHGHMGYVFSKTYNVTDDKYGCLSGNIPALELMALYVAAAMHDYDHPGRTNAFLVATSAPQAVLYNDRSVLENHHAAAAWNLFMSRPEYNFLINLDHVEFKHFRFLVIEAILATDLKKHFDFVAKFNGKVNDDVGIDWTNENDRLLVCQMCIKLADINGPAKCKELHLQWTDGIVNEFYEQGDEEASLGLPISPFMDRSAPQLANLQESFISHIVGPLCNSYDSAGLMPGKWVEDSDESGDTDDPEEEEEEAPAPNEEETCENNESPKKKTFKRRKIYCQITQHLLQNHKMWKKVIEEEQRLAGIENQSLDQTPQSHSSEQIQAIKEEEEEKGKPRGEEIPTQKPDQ

As for `C[C@@H]1CC(=O)NN=C1c1ccc(NN=C(C#N)C#N)cc1` [Levosimendan, levosimendan, reference compound], the half-inhibitory concentration (IC50) turned out to be 2.1 nM and the “PDE-IV Versus PDE-III, IC50 Ratio” value was determined as 7619.

Take `C[C@@H]1CC(=O)NN=C1c1ccc(N)cc1` [OR-1855]: the “PDE-IV Versus PDE-III, IC50 Ratio” value amounted to 100. Moreover, the IC50 under setting [1] turned out to be 5000 nM.

Turning to `CC(=O)Nc1ccc(C2=NNC(=O)C[C@H]2C)cc1` [OR-1896], the “PDE-IV Versus PDE-III, IC50 Ratio” value turned out to be 3043. Moreover, the concentration for half-maximal inhibition (IC50) under setting [1] amounted to 94 nM.

The term IC50 denotes the midpoint of a concentration-inhibition curve.
